This passage reports Activity results from ChEMBL document CHEMBL3046096, “CoMFA AND CoMSIA STUDIES ON A SET OF BENZYL PIPERAZINES, PIPERADINES, PYRAZINOPYRIDOINDOLES, PYRAZINOISOQUINOLINES AND SEMI RIGID ANALOGS OF DIPHENHYDRAMINE” (Med Chem Res, 2004).

Histamine H1 receptor (Cavia porcellus), sequence (P31389 whole entry): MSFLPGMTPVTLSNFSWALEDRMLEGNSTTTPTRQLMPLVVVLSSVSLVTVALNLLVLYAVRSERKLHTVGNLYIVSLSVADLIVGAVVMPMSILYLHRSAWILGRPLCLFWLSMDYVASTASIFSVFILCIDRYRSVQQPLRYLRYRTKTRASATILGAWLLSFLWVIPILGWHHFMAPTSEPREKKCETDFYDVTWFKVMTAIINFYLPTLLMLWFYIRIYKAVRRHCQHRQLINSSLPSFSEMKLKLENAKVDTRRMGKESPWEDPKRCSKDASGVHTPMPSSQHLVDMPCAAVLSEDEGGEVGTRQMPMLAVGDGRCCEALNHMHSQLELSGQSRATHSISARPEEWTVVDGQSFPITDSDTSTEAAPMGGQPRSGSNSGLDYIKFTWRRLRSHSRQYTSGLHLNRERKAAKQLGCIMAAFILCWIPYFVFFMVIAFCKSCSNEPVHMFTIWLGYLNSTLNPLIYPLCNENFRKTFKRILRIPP

This assay concerns the target Histamine H1 receptor (Cavia porcellus) (UniProt P31389). As to the kind of experiment: Antagonist activity at histamine H1 receptor in Cavia porcellus (guinea pig) ileum. Type of assay: tissue-based.
In turn, `CCc1ccccc1NC(=O)CCN1CCN2Cc3ccccc3CC2C1` (centres undefined) showed an Activity of 0.525 µM/L.
In turn, `O=C(NCCN1CCN(Cc2ccccc2)CC1)c1ccccc1I` had an Activity of 0.345 µM/L.
`CCc1ccccc1NC(=O)CCN1CCN2Cc3[nH]c4ccccc4c3CC2C1` (centres undefined): the Activity was found to be 0.634 µM/L.
Then `O=C(CCN1CCN(Cc2ccccc2)CC1)Nc1ccccc1F`, with 1.32 µM/L; and `Cc1ccccc1C(=O)NCCN1CCC(Cc2ccccc2)CC1`, with 1.07 µM/L; and `O=C(NCCN1CCN(Cc2ccccc2)CC1)c1ccccc1[N+](=O)[O-]`, with 1.32 µM/L.
As for `O=C(CCN1CCN2Cc3[nH]c4ccccc4c3CC2C1)Nc1ccccc1F` (centres undefined), the Activity amounted to 1.28 µM/L.
`CN(C)CCOC1c2ccccc2-c2ccccc21` returned an Activity of 0.039 µM/L.
`O=C(CCN1CCC(Cc2ccccc2)CC1)Nc1ccccc1Cl` gave an Activity of 0.561 µM/L.
For `O=C(CCN1CCN(Cc2ccccc2)CC1)Nc1ccccc1` the value was 2.17 µM/L; for `O=C(CCN1CCN2Cc3[nH]c4ccccc4c3CC2C1)Nc1ccccc1` (centres undefined), 1.6 µM/L; for `Cc1ccccc1C(=O)NCCN1CCN(Cc2ccccc2)CC1`, 7.12 µM/L.
For `O=C(NCCN1CCN2Cc3[nH]c4ccccc4c3CC2C1)c1ccccc1Cl` (centres undefined) the value was 0.206 µM/L; for `O=C(CCN1CCN2Cc3[nH]c4ccccc4c3CC2C1)Nc1ccccc1[N+](=O)[O-]` (centres undefined), 1.74 µM/L.
For `O=C(CCN1CCN2Cc3[nH]c4ccccc4c3CC2C1)Nc1ccccc1Cl` (centres undefined) the value was 0.979 µM/L.
Take `Nc1ccccc1C(=O)NCCN1CCN2Cc3[nH]c4ccccc4c3CC2C1` (centres undefined): the Activity stood at 0.925 µM/L.
As to `O=C(CCN1CCC(Cc2ccccc2)CC1)Nc1ccccc1F`, the Activity is 0.832 µM/L.
Then `O=C(CCN1CCN(Cc2ccccc2)CC1)Nc1ccccc1Cl`, with 0.836 µM/L.
Then `O=C(CCN1CCN2Cc3ccccc3CC2C1)Nc1ccccc1[N+](=O)[O-]` (centres undefined), with 1.32 µM/L; and `O=C(CCN1CCN2Cc3ccccc3CC2C1)Nc1ccccc1` (centres undefined), with 1.34 µM/L; and `O=C(NCCN1CCN(Cc2ccccc2)CC1)c1ccccc1Br`, with 0.421 µM/L.
Then `CN(C)C[C@@H]1O[C@@H](c2ccccc2)c2ccccc21` (relative stereo), with 0.0039 µM/L; and `CN(C)[C@@H]1CO[C@@H](c2ccccc2)c2ccccc21` (relative stereo), with 0.51 µM/L.
In turn, `O=C(NCCN1CCN2Cc3[nH]c4ccccc4c3CC2C1)c1ccccc1[N+](=O)[O-]` (centres undefined) had an Activity of 0.375 µM/L.
With `O=C(NCCN1CCC(Cc2ccccc2)CC1)c1ccccc1Cl`, the Activity was 0.799 µM/L.
`COc1ccccc1C(=O)NCCN1CCN2Cc3[nH]c4ccccc4c3CC2C1` (centres undefined) gave an Activity of 0.364 µM/L.
Consider `CN(C)C[C@@H]1O[C@H](c2ccccc2)c2ccccc21` (relative stereo), for which the Activity came to 0.0039 µM/L.
`COc1ccccc1NC(=O)CCN1CCC(Cc2ccccc2)CC1`: the Activity was determined as 0.963 µM/L.
The compound `O=C(CCN1CCC(Cc2ccccc2)CC1)Nc1ccccc1` came in with an Activity of 1.51 µM/L.
The compound `O=C(NCCN1CCN(Cc2ccccc2)CC1)c1ccccc1Cl` showed an Activity of 0.696 µM/L.
For `CCc1ccccc1NC(=O)CCN1CCC(Cc2ccccc2)CC1` the value was 0.477 µM/L; for `O=C(NCCN1CCC(Cc2ccccc2)CC1)c1ccccc1`, 1.55 µM/L; for `CCc1ccccc1NC(=O)CCN1CCN(Cc2ccccc2)CC1`, 0.778 µM/L.
Then `O=C(NCCN1CCN(Cc2ccccc2)CC1)c1ccccc1`, with 6.94 µM/L; and `O=C(CCN1CCN2Cc3ccccc3CC2C1)Nc1ccccc1Cl` (centres undefined), with 0.677 µM/L.
In the case of `O=C(NCCN1CCN2Cc3[nH]c4ccccc4c3CC2C1)c1ccccc1` (centres undefined), the Activity amounted to 0.535 µM/L.
For `O=C(NCCN1CCC(Cc2ccccc2)CC1)c1ccccc1Br` the value was 0.661 µM/L.
For `O=C(CCN1CCN(Cc2ccccc2)CC1)Nc1ccccc1[N+](=O)[O-]` the value was 1.7 µM/L; for `Cc1ccccc1C(=O)NCCN1CCN2Cc3[nH]c4ccccc4c3CC2C1` (centres undefined), 0.283 µM/L.
